Measured values from patent publication US8906925B2, “Pyrido[4,3-B]indoles containing rigid moieties” (Medivation Technologies, Inc., priority 2008, dated 2014).

Legend:
histamine receptor H1 = histamine receptor H1 (Homo sapiens, UniProt P35367); assay: Histamine H1 radioligand binding ([3H]Pyrilamine); conditions: read-out: Histamine Binding (1 μM) H1, percent inhibition of specific binding, 1 μM
Method in brief: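 Values are percent inhibition of specific [3H]pyrilamine (1.2 nM) binding with compounds at ≤1 μM (1% DMSO vehicle); 180 min incubation at 25 °C, pH 7.4 Tris buffer, on CHO-expressed human H1 receptor; 1 μM pyrilamine defined nonspecific binding, bound ligand counted after filtration.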

[1] = molecular target: human recombinant serotonin (5-Hydroxytryptamine) 5-HT7 receptor (Homo sapiens, UniProt P34969); assay: Serotonin 5-HT7 radioligand binding ([3H]LSD); conditions: read-out: Inhibition of ligand binding, Serotonin 5-HT7 (percent inhibition of specific binding); for inhibition at 1 µM: compound at 1 μM; for inhibition at 0.1 µM: compound at 0.1 μM
Excerpt: Receptor proteins were filtered and washed, the filters were then counted to determine [^3H]LSD specifically bound.

[2] = molecular target: T1, human recombinant serotonin (5-Hydroxytryptamine) 5-HT2C receptor (Homo sapiens, UniProt P28335); assay: Serotonin 5-HT2C radioligand binding ([3H]Mesulergine); conditions: read-out: Inhibition of ligand binding, Serotonin 5-HT2C (percent inhibition of specific binding); for inhibition at 1 µM: compound at 1 μM; for inhibition at 0.1 µM: compound at 0.1 μM
T1 construct: expressed in transfected cells; host or cells: Chinese hamster ovary (CHO-K1) cells
T1 sequence (P28335 33-458): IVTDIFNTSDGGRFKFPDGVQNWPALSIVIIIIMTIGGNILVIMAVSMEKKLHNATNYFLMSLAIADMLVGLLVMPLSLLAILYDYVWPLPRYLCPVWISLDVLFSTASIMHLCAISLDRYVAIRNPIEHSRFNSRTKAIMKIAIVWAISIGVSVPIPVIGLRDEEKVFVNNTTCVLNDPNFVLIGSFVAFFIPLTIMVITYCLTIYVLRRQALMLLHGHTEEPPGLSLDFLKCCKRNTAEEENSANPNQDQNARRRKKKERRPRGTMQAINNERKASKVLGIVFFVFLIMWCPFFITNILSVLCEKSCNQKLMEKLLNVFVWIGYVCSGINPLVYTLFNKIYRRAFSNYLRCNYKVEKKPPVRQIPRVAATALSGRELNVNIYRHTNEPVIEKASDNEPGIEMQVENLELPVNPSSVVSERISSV
Method in brief: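 Compounds tested at 1 μM or lower (1% DMSO vehicle) for displacement of 1 nM [3H]Mesulergine over 60 min at 25° C. Specific binding determined by filtration counting, with 1 μM Mianserin defining non-specific binding; values are percent inhibition.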

[3] = molecular target: human dopamine D2L receptor (Homo sapiens, UniProt P14416); assay: Dopamine D2L radioligand binding ([3H]Spiperone); conditions: percent inhibition of specific binding; compound at 1 μM; read-out: Inhibition of ligand binding, Dopamine D2L
Excerpt: Non-specific binding was estimated in the presence of […] Haloperidol. Receptor proteins were filtered and washed, the filters were then counted to determine [^3H]Spiperone specifically bound. […] Biochemical assay results are presented as the percent inhibition of specific binding in Table 9.

[4] = molecular target: T2, human recombinant serotonin (5-Hydroxytryptamine) 5-HT2A receptor (Homo sapiens, UniProt P28223); assay: Serotonin 5-HT2A radioligand binding ([3H]Ketanserin); conditions: for inhibition at 1 µM: read-out: Inhibition of ligand binding, Serotonin 5-HT2A (percent inhibition of specific binding), compound at 1 μM; for inhibition at 0.1 µM: read-out: Inhibition of ligand binding, Serotonin 5-HT2A (percent inhibition of specific binding), compound at 0.1 μM
T2 construct: expressed in transfected cells; host or cells: Chinese hamster ovary (CHO-K1) cells
Procedure: Compounds of the invention were incubated with 0.5 nM [^3H]Ketanserin for 60 min. at 25° C. Non-specific binding was estimated in the presence of 1 μM Mianserin. Receptor proteins were filtered and washed, the filters were then counted to determine [^3H]Ketanserin specifically bound.

[5] = molecular target: T3, human recombinant histamine H2 receptor (Homo sapiens, UniProt P25021); assay: Histamine H2 radioligand binding ([125I]Aminopotentidine); conditions: read-out: Histamine Binding (1 μM) H2, percent inhibition of specific binding, 1 μM
T3 construct: expressed in transfected cells; host or cells: Chinese hamster ovary (CHO) K1 cells
Procedure: To evaluate in radioligand binding assays the activity of compounds of the invention, human recombinant histamine H2 receptor expressed in Chinese hamster ovary (CHO) K1 cells (Ruat, M., Proc. Natl. Acad. Sci. USA. 87(5):1658, 1990) in a 50 mM Phosphate buffer, pH 7.4 was used. Compounds of the invention were incubated with 0.1 nM [^125I]Aminopotentidine for 120 min. at 25° C. Non-specific binding was estimated in the presence of 3 μM Tiotidine. Receptor proteins were filtered and washed, the filters were then counted to determine [^125I]Aminopotentidine specifically bound.

[6] = molecular target: T4, human recombinant serotonin (5-Hydroxytryptamine) 5-HT6 receptor (Homo sapiens, UniProt P50406); assay: Serotonin 5-HT6 radioligand binding ([3H]LSD); conditions: read-out: Inhibition of ligand binding, Serotonin 5-HT6 (percent inhibition of specific binding); for inhibition at 1 µM: compound at 1 μM; for inhibition at 0.1 µM: compound at 0.1 μM
T4 construct: expressed in transfected cells; host or cells: human HeLa cells
Procedure: Compounds of the invention were incubated with 1.5 nM [3H]Lysergic acid diethylamide (LSD) for 120 min. at 37° C. […] Receptor proteins were filtered and washed, the filters were then counted to determine [3H]LSD specifically bound. Compounds were screened at 1 μM or lower, using 1% DMSO as vehicle. Biochemical assay results are presented as the percent inhibition of specific binding in Table 10.

T2 sequence (P28223 whole entry): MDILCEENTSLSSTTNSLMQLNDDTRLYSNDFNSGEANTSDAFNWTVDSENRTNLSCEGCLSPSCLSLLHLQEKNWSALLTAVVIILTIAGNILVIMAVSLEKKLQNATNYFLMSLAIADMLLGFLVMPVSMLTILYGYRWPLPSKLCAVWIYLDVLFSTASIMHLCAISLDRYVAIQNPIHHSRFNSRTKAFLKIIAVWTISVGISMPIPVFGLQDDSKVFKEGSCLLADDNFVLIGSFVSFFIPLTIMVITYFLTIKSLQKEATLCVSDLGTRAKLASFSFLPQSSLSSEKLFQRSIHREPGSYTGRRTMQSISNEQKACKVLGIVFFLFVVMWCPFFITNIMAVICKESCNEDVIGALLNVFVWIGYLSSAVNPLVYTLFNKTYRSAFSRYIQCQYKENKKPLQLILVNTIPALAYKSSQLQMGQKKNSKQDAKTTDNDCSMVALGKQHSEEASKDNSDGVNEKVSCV
human dopamine D2L receptor, sequence (P14416 whole entry): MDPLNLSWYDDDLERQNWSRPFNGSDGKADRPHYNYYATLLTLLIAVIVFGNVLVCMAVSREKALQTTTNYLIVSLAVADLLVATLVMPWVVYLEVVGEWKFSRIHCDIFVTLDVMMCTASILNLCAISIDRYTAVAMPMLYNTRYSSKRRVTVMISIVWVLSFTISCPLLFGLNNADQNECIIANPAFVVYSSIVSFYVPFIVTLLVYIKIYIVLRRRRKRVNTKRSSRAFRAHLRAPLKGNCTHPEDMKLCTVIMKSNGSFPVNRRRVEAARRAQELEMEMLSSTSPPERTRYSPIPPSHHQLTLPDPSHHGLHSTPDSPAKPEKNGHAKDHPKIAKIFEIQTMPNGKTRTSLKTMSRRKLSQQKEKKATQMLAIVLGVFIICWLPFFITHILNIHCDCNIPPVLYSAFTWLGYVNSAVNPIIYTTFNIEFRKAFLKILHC
human recombinant serotonin (5-Hydroxytryptamine) 5-HT7 receptor, sequence (P34969 whole entry): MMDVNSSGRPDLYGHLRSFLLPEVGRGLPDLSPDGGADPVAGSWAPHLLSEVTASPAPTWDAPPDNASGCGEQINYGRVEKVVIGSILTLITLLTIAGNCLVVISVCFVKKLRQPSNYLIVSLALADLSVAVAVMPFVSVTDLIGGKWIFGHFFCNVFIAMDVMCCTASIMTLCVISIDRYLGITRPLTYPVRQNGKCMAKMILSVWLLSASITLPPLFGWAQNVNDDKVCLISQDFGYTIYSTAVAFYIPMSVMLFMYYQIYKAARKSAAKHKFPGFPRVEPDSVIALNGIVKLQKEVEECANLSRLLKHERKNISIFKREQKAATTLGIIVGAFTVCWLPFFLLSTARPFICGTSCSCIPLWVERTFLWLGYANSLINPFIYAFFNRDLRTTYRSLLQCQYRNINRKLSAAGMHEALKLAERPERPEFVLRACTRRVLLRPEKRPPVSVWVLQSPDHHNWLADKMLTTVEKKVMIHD
T4 sequence (P50406 whole entry): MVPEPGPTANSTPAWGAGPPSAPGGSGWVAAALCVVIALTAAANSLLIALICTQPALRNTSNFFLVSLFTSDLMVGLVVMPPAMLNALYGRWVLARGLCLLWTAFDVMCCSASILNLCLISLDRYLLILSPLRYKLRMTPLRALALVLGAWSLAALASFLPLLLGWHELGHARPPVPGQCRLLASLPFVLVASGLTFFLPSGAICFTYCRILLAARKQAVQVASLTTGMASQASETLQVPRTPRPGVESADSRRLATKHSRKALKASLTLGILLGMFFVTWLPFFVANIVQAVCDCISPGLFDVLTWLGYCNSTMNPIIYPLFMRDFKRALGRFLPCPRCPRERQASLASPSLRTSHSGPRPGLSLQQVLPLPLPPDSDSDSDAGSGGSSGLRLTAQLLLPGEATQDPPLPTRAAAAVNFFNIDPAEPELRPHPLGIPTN
histamine receptor H1, sequence (P35367 whole entry): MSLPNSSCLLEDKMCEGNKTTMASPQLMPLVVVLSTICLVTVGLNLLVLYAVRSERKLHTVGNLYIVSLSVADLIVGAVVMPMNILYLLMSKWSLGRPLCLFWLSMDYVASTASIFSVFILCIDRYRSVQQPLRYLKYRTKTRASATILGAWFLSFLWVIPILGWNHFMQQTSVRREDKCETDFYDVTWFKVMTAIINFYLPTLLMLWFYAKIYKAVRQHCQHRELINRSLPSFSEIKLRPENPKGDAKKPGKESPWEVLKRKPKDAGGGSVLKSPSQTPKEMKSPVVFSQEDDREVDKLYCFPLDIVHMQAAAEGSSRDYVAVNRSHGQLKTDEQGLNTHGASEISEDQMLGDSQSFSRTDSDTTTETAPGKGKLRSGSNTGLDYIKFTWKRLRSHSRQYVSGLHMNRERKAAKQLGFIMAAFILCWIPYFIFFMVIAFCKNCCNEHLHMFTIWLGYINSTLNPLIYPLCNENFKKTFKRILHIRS
T3 sequence (P25021 whole entry): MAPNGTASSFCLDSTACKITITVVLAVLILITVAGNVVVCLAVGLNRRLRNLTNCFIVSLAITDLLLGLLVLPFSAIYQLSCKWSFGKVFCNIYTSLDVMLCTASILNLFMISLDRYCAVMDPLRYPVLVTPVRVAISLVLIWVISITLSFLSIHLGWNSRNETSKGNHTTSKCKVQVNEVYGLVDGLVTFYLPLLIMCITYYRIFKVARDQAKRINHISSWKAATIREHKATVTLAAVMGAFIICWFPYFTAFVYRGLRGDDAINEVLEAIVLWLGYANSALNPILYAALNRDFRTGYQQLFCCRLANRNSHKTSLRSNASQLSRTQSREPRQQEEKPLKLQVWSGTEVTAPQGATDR

| Structure (SMILES) | inhibition at 1 µM (histamine receptor H1) [%] | inhibition at 1 µM [1] [%] | inhibition at 1 µM [2] [%] | inhibition at 1 µM [3] [%] | inhibition at 1 µM [4] [%] | inhibition at 1 µM [5] [%] | inhibition at 1 µM [6] [%] | inhibition at 0.1 µM [1] [%] | inhibition at 0.1 µM [2] [%] | inhibition at 0.1 µM [4] [%] | inhibition at 0.1 µM [6] [%] |
| --- | --- | --- | --- | --- | --- | --- | --- | --- | --- | --- | --- |
| CN1CCc2c(c3ccc(Cl)cc3n2CC(C)(O)c2ccncc2)C1 (centres unmarked) [Compound 184, 1-(7-chloro-2-methyl-3,4-dihydro-1H-pyrido[4,3-b]indol-5(2H)-yl)-2-(pyridin-4-yl)propan-2-ol] | 23 | 48 | 65 | 1 | 82 | 57 | 31 |  |  |  |  |
| COc1ccc2c(c1)c1c(n2/C=C(\C)c2ccncc2)CCN(C)C1 [Compound 246, (E)-8-methoxy-2-methyl-5-(2-(pyridin-4-yl)prop-1-enyl)-2,3,4,5-tetrahydro-1H-pyrido[4,3-b]indole] | 7 | 88 | 94 | 57 | 97 | 29 | 104 |  |  |  |  |
| C/C(=C\n1c2c(c3cc(C)ccc31)CN(C)C(C)C2)c1ccncc1 (centres unmarked) [Compound 257, (E)-2,3,8-trimethyl-5-(2-(pyridin-4-yl)prop-1-enyl)-2,3,4,5-tetrahydro-1H-pyrido[4,3-b]indole] | 18 |  |  | 72 |  |  |  | 75 | 94 | 94 | 71 |
| CC/C(=C/n1c2c(c3cc(Cl)ccc31)CN(C)CC2)c1ccncc1 [Compound 282, (Z)-8-chloro-2-methyl-5-(2-(pyridin-4-yl)but-1-enyl)-2,3,4,5-tetrahydro-1H-pyrido[4,3-b]indole] | 31 |  |  | 57 |  |  |  | 91 | 94 | 100 | 102 |
| CCC(O)(Cn1c2c(c3cc(C)ccc31)CN(C)CC2)c1ccncc1 (centres unmarked) [Compound 196, 1-(2,8-dimethyl-3,4-dihydro-1H-pyrido[4,3-b]indol-5(2H)-yl)-2-(pyridin-4-yl)butan-2-ol] | 19 |  |  | 9 |  |  |  | 12 | 8 | 36 | 10 |
| C/C(=C\n1c2c(c3cc(OC(F)(F)F)ccc31)CN(C)CC2)c1ccncc1 [Compound 263, (E)-2-methyl-5-(2-(pyridin-4-yl)prop-1-enyl)-8-(trifluoromethoxy)-2,3,4,5-tetrahydro-1H-pyrido[4,3-b]indole] | 8 |  |  | 89 |  |  |  | 15 | 18 | 64 | 99 |
| C/C(=C\n1c2c(c3ccccc31)CN(C)CC2)c1ccc(C)nc1 [Compound 254, (E)-2-methyl-5-(2-(6-methylpyridin-3-yl)prop-1-enyl)-2,3,4,5-tetrahydro-1H-pyrido[4,3-b]indole] | 7 |  |  | 11 |  |  |  | 63 | 52 | 65 | 15 |
| CCN1CCc2c(c3ccccc3n2/C=C(\C)c2ccncc2)C1 [Compound 266, (E)-2-ethyl-5-(2-(pyridin-4-yl)prop-1-enyl)-2,3,4,5-tetrahydro-1H-pyrido[4,3-b]indole] | -1 |  |  | 94 |  |  |  | 18 | 12 | 67 | 81 |
| C/C(=C\n1c2c(c3cc(C)ccc31)CN(C)CC2)c1ccccn1 [Compound 278, (E)-2,8-dimethyl-5-(2-(pyridin-2-yl)prop-1-enyl)-2,3,4,5-tetrahydro-1H-pyrido[4,3-b]indole] | 24 |  |  | 51 |  |  |  | 79 | 91 | 88 | 69 |
| C/C(=C\n1c2c(c3cc(C)ccc31)CN(C)C(C)C2)c1ccc(F)cc1 (centres unmarked) [Compound 258, (E)-5-(2-(4-fluorophenyl)prop-1-enyl)-2,3,8-trimethyl-2,3,4,5-tetrahydro-1H-pyrido[4,3-b]indole] | 59 |  |  | 81 |  |  |  | 84 | 98 | 98 | 81 |
| C/C(=C\n1c2c(c3cccc(F)c31)CN(C)CC2)c1ccc(C)nc1 [Compound 260, (E)-6-fluoro-2-methyl-5-(2-(6-methylpyridin-3-yl)prop-1-enyl)-2,3,4,5-tetrahydro-1H-pyrido[4,3-b]indole] | -19 |  |  | 9 |  |  |  | 5 | 29 | 34 | -7 |
| C/C(=C\n1c2c(c3ccc(C(F)(F)F)cc31)CN(C)CC2)c1ccc(C)nc1 [Compound 250, (E)-2-methyl-5-(2-(6-methylpyridin-3-yl)prop-1-enyl)-7-(trifluoromethyl)-2,3,4,5-tetrahydro-1H-pyrido[4,3-b]indole] | 12 |  |  | 18 |  |  |  | 33 | 31 | 36 | 13 |
| C/C(=C\n1c2c(c3cc(C)ccc31)CN(C)CC2)c1ccc(F)cc1F [Compound 276, (E)-5-(2-(2,4-difluorophenyl)prop-1-enyl)-2,8-dimethyl-2,3,4,5-tetrahydro-1H-pyrido[4,3-b]indole] | 63 |  |  | 82 |  |  |  | 86 | 96 | 99 | 81 |
| C/C(=C\n1c2c(c3ccc(Cl)cc31)CN(C)CC2)c1ccc(C)nc1 [Compound 253, (E)-7-chloro-2-methyl-5-(2-(6-methylpyridin-3-yl)prop-1-enyl)-2,3,4,5-tetrahydro-1H-pyrido[4,3-b]indole] | 20 |  |  | 22 |  |  |  | 54 | 49 | 85 | 9 |
| C/C(=C\n1c2c(c3cc(C(F)(F)F)ccc31)CN(C)CC2)c1ccc(F)cc1 [Compound 268, (E)-5-(2-(4-fluorophenyl)prop-1-enyl)-2-methyl-8-(trifluoromethyl)-2,3,4,5-tetrahydro-1H-pyrido[4,3-b]indole] | 53 |  |  | 98 |  |  |  | 87 | 86 | 98 | 97 |
